From the supplement of paper PMC11451515

Columns and labels:
Settings in all cases: 48 h
NOMO1 [1] = test: AUC of viability dose-response curve (% viability x log10 dose units); higher = less sensitive
Method in brief: (§1)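 Medium-adapted leukemia cells in 1536-well plates, at 500 or 1000 cells/well, were incubated for 48 h at 37°C with library compounds in DMSO at 11 threefold doses from 47 μM to 0.79 nM. CellTiter-Glo One luminescence normalised per plate to DMSO and cell-free wells was fitted with a four-parameter log-logistic model over log10 doses. Area under the curve was integrated from this fit by trapezoidal rule, with curves beyond full viability scaled and failed quality-control curves removed.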

SEM cells [2] = test: as above
Method in brief: as §1

P12-Ichikawa [3] = test: as above
Method in brief: as §1

NOMO1 [4] = test: cell viability relative to DMSO control; higher = less cytotoxic
Method in brief: (§2)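 Viability was expressed as a per-plate percentage of DMSO wells, with cell-free wells as background. Leukemia cells (NOMO1 or SEM at 500 cells/well, P12-Ichikawa at 1000 cells/well) were adapted for at least four passages in each medium and seeded in 1536-well plates (5 μl). Library compounds in DMSO were pin-dosed over an 11-point threefold series from 47 μM to 0.79 nM, and CellTiter-Glo One luminescence was read after 48 h at 37°C.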

SEM cells [5] = test: as above
Method in brief: as §2

P12-Ichikawa [6] = test: as above
Method in brief: as §2

CN[C@@H](C)[C@H]1[C@H](O)C[C@@]2(C)[C@@H]3CC[C@H]4C(C)(C)[C@@H](NC)CC[C@@]45C[C@@]35CC[C@]12C
AUC of viability dose-response curve
Settings	NOMO1 [1]	P12-Ichikawa [3]	SEM cells [2]
HPLM + 10% dialyzed FBS	445	464	376
RPMI 5 mM glucose + 10% FBS	454	450	392
RPMI 5 mM glucose + 10% dialyzed FBS	445	425	399

cell viability [%]
Settings	NOMO1 [4]	P12-Ichikawa [6]	SEM cells [5]
HPLM + 10% dialyzed FBS, 0.000781 µM	81.4	92.3	73.4
HPLM + 10% dialyzed FBS, 0.00234 µM	102	97.3	83.6
HPLM + 10% dialyzed FBS, 0.00702 µM	81.7	84.8	53.9
HPLM + 10% dialyzed FBS, 0.0211 µM	108	98.4	85.5
HPLM + 10% dialyzed FBS, 0.0632 µM	89.8	96.5	90.1
HPLM + 10% dialyzed FBS, 0.19 µM	93.7	100	95.8
HPLM + 10% dialyzed FBS, 0.569 µM	105	98.8	83.2
HPLM + 10% dialyzed FBS, 1.71 µM	95.2	102	98.4
HPLM + 10% dialyzed FBS, 5.12 µM	82.6	103	42.5
HPLM + 10% dialyzed FBS, 15.4 µM	105	97	93.4
HPLM + 10% dialyzed FBS, 46.1 µM	70.9	96.3	66.3
RPMI 5 mM glucose + 10% FBS, 0.000781 µM	85.4	95.4	81.8
RPMI 5 mM glucose + 10% FBS, 0.00234 µM	94.5	89	83.2
RPMI 5 mM glucose + 10% FBS, 0.00702 µM	91.6	81.6	56
RPMI 5 mM glucose + 10% FBS, 0.0211 µM	94.3	94.4	95.2
RPMI 5 mM glucose + 10% FBS, 0.0632 µM	102	103	82.7
RPMI 5 mM glucose + 10% FBS, 0.19 µM	102	98.8	83.3
RPMI 5 mM glucose + 10% FBS, 0.569 µM	95	89.3	109
RPMI 5 mM glucose + 10% FBS, 1.71 µM	94.8	105	68.9
RPMI 5 mM glucose + 10% FBS, 5.12 µM	93.9	81.9	40
RPMI 5 mM glucose + 10% FBS, 15.4 µM	95.7	105	100
RPMI 5 mM glucose + 10% FBS, 46.1 µM	92.5	91.9	103
RPMI 5 mM glucose + 10% dialyzed FBS, 0.000781 µM	86.4	85	72.7
RPMI 5 mM glucose + 10% dialyzed FBS, 0.00234 µM	87.8	91	75.4
RPMI 5 mM glucose + 10% dialyzed FBS, 0.00702 µM	101	83.8	66.4
RPMI 5 mM glucose + 10% dialyzed FBS, 0.0211 µM	99.6	90.1	83.4
RPMI 5 mM glucose + 10% dialyzed FBS, 0.0632 µM	104	93.2	87.3
RPMI 5 mM glucose + 10% dialyzed FBS, 0.19 µM	95.6	98.8	99.2
RPMI 5 mM glucose + 10% dialyzed FBS, 0.569 µM	93.1	89.3	109
RPMI 5 mM glucose + 10% dialyzed FBS, 1.71 µM	91.7	92.6	93.9
RPMI 5 mM glucose + 10% dialyzed FBS, 5.12 µM	86.1	81.7	44.3
RPMI 5 mM glucose + 10% dialyzed FBS, 15.4 µM	99.6	93.8	99.4
RPMI 5 mM glucose + 10% dialyzed FBS, 46.1 µM	72.1	79.4	89.8

CN(C)C(=N)NC(=N)N
AUC of viability dose-response curve
Settings	NOMO1 [1]	P12-Ichikawa [3]	SEM cells [2]
HPLM + 10% dialyzed FBS	437	442	436
RPMI 5 mM glucose + 10% FBS	446	460	393
RPMI 5 mM glucose + 10% dialyzed FBS	451	457	426

SEM cells [5], RPMI 5 mM glucose + 10% FBS
Settings	cell viability [%]
0.000781 µM	110
0.00234 µM	122
0.00702 µM	116
0.0211 µM	132
0.0632 µM	152
0.19 µM	154
0.569 µM	156
1.71 µM	110
5.12 µM	62.4
15.4 µM	56.6
46.1 µM	17.8

O=c1[nH]c2ccccc2n1CCCN1CCC(n2c(=O)[nH]c3cc(Cl)ccc32)CC1
AUC of viability dose-response curve
Settings	NOMO1 [1]	P12-Ichikawa [3]	SEM cells [2]
HPLM + 10% dialyzed FBS	459	467	448
RPMI 5 mM glucose + 10% FBS	466	460	473
RPMI 5 mM glucose + 10% dialyzed FBS	472	470	475

NOMO1 [4], RPMI 5 mM glucose + 10% FBS
Settings	cell viability [%]
0.000781 µM	124
0.00234 µM	146
0.00702 µM	123
0.0211 µM	134
0.0632 µM	151
0.19 µM	149
0.569 µM	137
1.71 µM	116
5.12 µM	131
15.4 µM	146
46.1 µM	122

CN(C)C1CCN(C(=O)c2ccc(NC(=O)Nc3nc(N4CCOCC4)nc(N4CCOCC4)n3)cc2)CC1
AUC of viability dose-response curve
Settings	NOMO1 [1]	P12-Ichikawa [3]	SEM cells [2]
HPLM + 10% dialyzed FBS	271	340	252
RPMI 5 mM glucose + 10% FBS	296	270	248
RPMI 5 mM glucose + 10% dialyzed FBS	272	275	247

cell viability [%]
Settings	NOMO1 [4]	P12-Ichikawa [6]	SEM cells [5]
HPLM + 10% dialyzed FBS, 0.000781 µM	85.5	91.2	83.9
HPLM + 10% dialyzed FBS, 0.00234 µM	100	92	92.1
HPLM + 10% dialyzed FBS, 0.00702 µM	80	101	81.5
HPLM + 10% dialyzed FBS, 0.0211 µM	67.8	91.7	67.4
HPLM + 10% dialyzed FBS, 0.0632 µM	60.6	75.9	61.7
HPLM + 10% dialyzed FBS, 0.19 µM	52.9	76	49.7
HPLM + 10% dialyzed FBS, 0.569 µM	43.1	66.4	41.8
HPLM + 10% dialyzed FBS, 1.71 µM	44.9	64.2	31.2
HPLM + 10% dialyzed FBS, 5.12 µM	40.5	57.8	30.9
HPLM + 10% dialyzed FBS, 15.4 µM	28.7	34.3	23.8
HPLM + 10% dialyzed FBS, 46.1 µM	25.1	20.9	19.3
RPMI 5 mM glucose + 10% FBS, 0.000781 µM	84.8	85.6	87.9
RPMI 5 mM glucose + 10% FBS, 0.00234 µM	89.3	84.9	78.9
RPMI 5 mM glucose + 10% FBS, 0.00702 µM	90.5	82.6	94.3
RPMI 5 mM glucose + 10% FBS, 0.0211 µM	84.5	73	75.1
RPMI 5 mM glucose + 10% FBS, 0.0632 µM	64.9	56	65.3
RPMI 5 mM glucose + 10% FBS, 0.19 µM	63.6	58.5	48.4
RPMI 5 mM glucose + 10% FBS, 0.569 µM	52.7	48.2	39.3
RPMI 5 mM glucose + 10% FBS, 1.71 µM	49	42.2	27.4
RPMI 5 mM glucose + 10% FBS, 5.12 µM	43.4	35.4	25.6
RPMI 5 mM glucose + 10% FBS, 15.4 µM	36.5	34.7	17.8
RPMI 5 mM glucose + 10% FBS, 46.1 µM	18.2	22.9	11.9
RPMI 5 mM glucose + 10% dialyzed FBS, 0.000781 µM	84.9	83.7	78.1
RPMI 5 mM glucose + 10% dialyzed FBS, 0.00234 µM	83.8	85.5	85.8
RPMI 5 mM glucose + 10% dialyzed FBS, 0.00702 µM	83.9	80.6	79.4
RPMI 5 mM glucose + 10% dialyzed FBS, 0.0211 µM	70.9	78.6	70.9
RPMI 5 mM glucose + 10% dialyzed FBS, 0.0632 µM	60.8	61.6	57.2
RPMI 5 mM glucose + 10% dialyzed FBS, 0.19 µM	53.3	56.2	52.5
RPMI 5 mM glucose + 10% dialyzed FBS, 0.569 µM	45.8	47.4	41.9
RPMI 5 mM glucose + 10% dialyzed FBS, 1.71 µM	44.4	43.4	33.4
RPMI 5 mM glucose + 10% dialyzed FBS, 5.12 µM	39.6	41.5	32.1
RPMI 5 mM glucose + 10% dialyzed FBS, 15.4 µM	38	34	22
RPMI 5 mM glucose + 10% dialyzed FBS, 46.1 µM	22.8	20.1	14.6
